Results reported in PubChem BioAssay (NCI).
Several values for one entry are separate records, joined by “and”; a condition that tells them apart may be missing. Equal entries are not always repeated.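 Dose response: 5 concentrations. Exposure: 48 h. Format: 96-well plates. Endpoint: linear interpolation; highest concentration if not reached. Abbreviation: GI50, concentration required for 50% inhibition of growth. TGI denotes the concentration required for complete inhibition of growth.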

Tests used:
Test in all cases: NCI tumour cell line growth inhibition, 48 h
DLD-1 colon = test system: DLD-1 colon
HOP-18 NSCLC = test system: HOP-18 NSCLC
LXFL 529 NSCLC = test system: LXFL 529 NSCLC
DMS 114 small cell lung = test system: DMS 114 small cell lung
XF 498 CNS = test system: XF 498 CNS
RXF-631 renal = test system: RXF-631 renal
SN12K1 renal = test system: SN12K1 renal
P388/ADR leukemia = test system: P388/ADR leukemia
P388 leukemia = test system: P388 leukemia

SMILES | TGI (DLD-1 colon) | TGI (HOP-18 NSCLC) | TGI (LXFL 529 NSCLC) | TGI (DMS 114 small cell lung) | TGI (XF 498 CNS) | TGI (RXF-631 renal) | GI50 (DLD-1 colon) | GI50 (HOP-18 NSCLC) | TGI (SN12K1 renal) | TGI (P388/ADR leukemia) | TGI (P388 leukemia) | GI50 (DMS 114 small cell lung)
COc1cc([C@@H]2c3cc4c(cc3[C@@H](NC(=O)c3ccc(C#N)cc3)C3COC(=O)[C@@H]32)OCO4)cc(OC)c1O (some centres undefined) | 12 µM | > 100 µM | > 100 µM | 2.27 µM |  |  |  |  |  |  |  | 
CN(C)c1nc(Oc2nc(N(C)C)nc(N(C)C)n2)nc(N(C)C)n1 | > 100 µM | > 100 µM | > 100 µM | > 100 µM | > 100 µM |  |  |  |  |  |  | 
COC(=O)CCC(NC(=S)N/N=C/c1cccs1)C(=O)OC (centres undefined) | > 100 µM | > 100 µM | > 100 µM | > 100 µM | > 100 µM | > 100 µM |  |  |  |  |  | 
Cc1cc([N+](=O)[O-])c(C)c2c1[nH]c1ccc(Cl)cc12 |  | > 100 µM |  | > 100 µM | > 100 µM |  |  |  |  |  |  | 
O=c1cc(O)cc2n1CCC2 | > 100 µM |  | > 100 µM | > 100 µM | > 100 µM | > 100 µM |  |  |  |  |  | 
N#CNC(N)=NCc1ccccc1 | > 100 µM |  | > 100 µM | > 100 µM |  |  |  |  |  |  |  | 
CCCCCCCC(=O)OCC(COC(=O)C(C)(C)C)OC(=O)Cc1ccccc1 (centres undefined) | > 100 µM | > 100 µM | > 100 µM | > 100 µM |  |  |  |  |  |  |  | 
COc1cc2ccc3c4cc(OC)c(OC)cc4c[n+](C)c3c2cc1O | > 100 µM | > 100 µM | > 100 µM | > 82.9 µM | > 88.1 µM |  |  |  |  |  |  | 
CCOC(=O)C1C(c2ccc(Cl)cc2Cl)NC(c2ccc(C)cc2)C(C(=O)OC)S1(=O)=O (centres undefined) | > 100 µM |  | > 100 µM |  | > 100 µM |  |  |  |  |  |  | 
Cc1c2ccnc(C(N)=O)c2c(C)c2c1[nH]c1ccccc12 | 45 µM and 23.6 µM | 46.5 µM and 47.3 µM | 26.9 µM | 47.3 µM and 47.6 µM | 19.8 µM and 26.4 µM | 28.8 µM | 3.57 µM | 15 µM | 19.1 µM | 35.8 µM | 14 µM | 6.72 µM
CCCCCCN(CCCCCC)C(=S)N/N=C(\C)c1ccccn1 | 2.93 µM |  | 1.45 µM | 2.29 µM |  | 3.67 µM |  |  |  |  |  | 
O=[N+]([O-])c1cccc(C2=NN(c3ccccc3)C3c4cc(Br)ccc4OCC23)c1 (centres undefined) | > 100 µM | > 100 µM | > 100 µM | > 100 µM | > 100 µM |  |  |  |  |  |  | 
COc1cc(C)c(CC/C(C)=C/Cc2cc(O)ccc2O)c(C)c1C | > 25 µM | > 25 µM | > 25 µM | > 25 µM | > 25 µM |  |  |  |  |  |  | 
Cc1c(N2CCOCC2)nc2ccc(Cl)cc2c1-c1ccccc1 |  |  | > 100 µM | > 100 µM |  |  |  |  |  |  |  | 
C[C@]12CCC3[C@@H](CCC45OC4C(=O)CC[C@]35C)C1Cc1cnn(-c3ccc(F)cc3)c1N2 (some centres undefined) |  | > 100 µM | > 100 µM | 50.5 µM | > 100 µM |  |  |  |  |  |  | 
CC1=NN(C(=O)Cc2ccccc2)C(=O)/C1=C\c1ccc(O)cc1 | > 100 µM |  | > 100 µM | > 100 µM | > 100 µM |  |  |  |  |  |  | 
